Measured values reported in ChEMBL document CHEMBL3243950, “New inhibitors of steroid 11beta-hydroxylase. Structure--activity relationship studies of metyrapone-like compounds” (J Med Chem, 1977).

Legend:
[1] = molecular target: T1, Cytochrome P450 11B1, mitochondrial (Bos taurus, UniProt P15150); assay: Inhibition of bovine adrenal gland 11beta-hydroxylase assessed as inhibition of [14C]-deoxycorticosterone hydroxylation at 2 uM relative to metyrapone; conditions: cattle
T1 sequence (P15150 whole entry): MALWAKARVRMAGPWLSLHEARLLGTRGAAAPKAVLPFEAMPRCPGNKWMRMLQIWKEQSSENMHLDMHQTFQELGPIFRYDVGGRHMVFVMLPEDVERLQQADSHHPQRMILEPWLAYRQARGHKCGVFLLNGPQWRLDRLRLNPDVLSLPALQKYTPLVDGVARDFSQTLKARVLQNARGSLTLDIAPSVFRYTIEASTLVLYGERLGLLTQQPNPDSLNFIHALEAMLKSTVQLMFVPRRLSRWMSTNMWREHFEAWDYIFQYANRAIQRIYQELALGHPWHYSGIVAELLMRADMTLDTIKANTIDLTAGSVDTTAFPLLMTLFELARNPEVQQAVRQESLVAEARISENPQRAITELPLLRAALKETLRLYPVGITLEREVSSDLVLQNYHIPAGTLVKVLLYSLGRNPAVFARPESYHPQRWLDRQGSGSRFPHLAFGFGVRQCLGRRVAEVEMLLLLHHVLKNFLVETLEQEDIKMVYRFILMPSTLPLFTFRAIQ

[2] = molecular target: T1, Cytochrome P450 11B1, mitochondrial; assay: Inhibition of bovine adrenal gland 11beta-hydroxylase assessed as inhibition of [14C]-deoxycorticosterone hydroxylation at 2 uM; conditions: cattle
[3] = molecular target: T1, Cytochrome P450 11B1, mitochondrial; assay: Inhibition of bovine adrenal gland 11beta-hydroxylase assessed as amount of corticosterone production using 11 nmol [14C]-deoxycorticosterone measured per 5 mins at 2 nmol (reference value: 1.3 +/- 0.04 nmol); conditions: cattle
[4] = molecular target: T1, Cytochrome P450 11B1, mitochondrial; assay: Inhibition of bovine adrenal gland 11beta-hydroxylase assessed as amount of corticosterone production using 22 nmol [14C]-deoxycorticosterone measured per 5 mins at 2 nmol; conditions: cattle
[5] = molecular target: T1, Cytochrome P450 11B1, mitochondrial; assay: Inhibition of bovine adrenal gland 11beta-hydroxylase assessed as amount of corticosterone production using 22 nmol [14C]-deoxycorticosterone measured per 5 mins at 2 nmol (reference value: 1.3 +/- 0.04 nmol); conditions: cattle
[6] = molecular target: T1, Cytochrome P450 11B1, mitochondrial; assay: Inhibition of bovine adrenal gland 11beta-hydroxylase assessed as amount of corticosterone production using 11 nmol [14C]-deoxycorticosterone measured per 5 mins at 2 nmol; conditions: cattle
[7] = molecular target: T1, Cytochrome P450 11B1, mitochondrial; assay: Inhibition of bovine adrenal gland 11beta-hydroxylase assessed as inhibition of [14C]-deoxycorticosterone hydroxylation

SMILES	Ratio [1]	inhibition at 2 µM [2] [%]	further results
O=C(c1cccnc1)C(c1ccccc1)c1cccnc1 (stereo not drawn)	0.52	35	–
O=C(c1ccccc1)C(c1ccccc1)c1cccnc1 (stereo not drawn)	0.32	22	–
O=C(c1cccnc1)C(c1ccccc1)c1ccccc1	0.22	15	–
O=C(Cc1ccccc1)c1cccnc1	0.13	9	–
CC(C(=O)c1cccnc1)c1ccccc1 (stereo not drawn)	0.19	13	–
OC(c1ccccc1)C(c1ccccc1)c1cccnc1 (stereo not drawn)	0.65	44	–
OC(c1cccnc1)C(c1ccccc1)c1ccccc1 (stereo not drawn)	0.25	17	–
CC(C(=O)c1ccccc1)c1cccnc1 (stereo not drawn)	0.65	44	–
O=C(Cc1cccnc1)c1ccccc1	0.22	15	–
OC(c1cccnc1)C(c1ccccc1)c1cccnc1 (racemic)	0.13	9	–
OC(Cc1cccnc1)c1cccnc1 (racemic)	0.1	7	–
C[C@@H](c1cccnc1)[C@@H](O)c1cccnc1 (relative stereo)	0.41	28	–
CC(C)(c1cccnc1)C(O)c1cccnc1 (stereo not drawn) [METYRAPOL]	0.65	44	–
CC(C)(C(=O)c1cccnc1)c1cccnc1 [METYRAPONE]	1	68	Activity [3]: 0.39 nmol; inhibition (INH) [4]: 68%; Activity [5]: 0.74 nmol; inhibition (INH) [6]: 70%; Ki [7]: 580 nM
